Data on 28 compounds can be found in US8288377B2, “Inhibitors of the interaction between MDM2 and p53” (Janssen Pharmaceutica N.V., priority 2007, dated 2012).

Bounds are passed on as bounds.

Assay [1] deals with A2780 ovarian cancer cells. Description: Proliferation assay (Alamar Blue). It counts as cell-based. Conditions: Homo sapiens, 96 h, 4-day incubation, read-out: pIC50 (negative log value of the IC50-value) (converted). The protocol: Cellular activity of the compounds of formula (I) was determined on A2780 tumour cells using a colorimetric assay for cell toxicity or survival (see example C.2).
The human A2780 ovarian cancer cells were a kind gift from Dr. T. C. Hamilton (Fox Chase Cancer Centre, Pennsylvania, U.S.A.). The cells were cultured in RPMI 1640 medium supplemented with 2 mM L-Glutamine, 50 μg/ml gentamicin and 10% fetal calf serum.
Resazurin was purchased from Aldrich (Prod. No. 199303). Potassium ferrocyanide, potassium ferricyanide, KH2PO4 and K2HPO4 were purchased from Sigma (Prod. Nos. P9387, P8131, P5655 and P8281, respectively).
Potassium Phosphate Buffer 0.1 M (PPB) was made as follows: 2.72 gram KH2PO4 and 13.86 gram K2HPO4 were dissolved in 500 ml milli-Q H2O, the pH was adjusted to pH 7.4 and the volume was brought to 1 liter with milli-Q H2O; the buffer was filter sterilised and stored at room temperature. Resazurin stock solution (PPB-A) was prepared fresh by dissolving 45 mg resazurin in 15 ml PBS. 30 mM potassium ferricyanide (PPB-B) was prepared by dissolving 0.987 gram potassium ferricyanide in 100 ml PPB. 30 mM potassium ferrocyanide (PPB-C) was prepared by dissolving 1.266 gram potassium ferrocyanide in 100 ml PPB.
Mixture of PPB-A, PPB-B and PPB-C was prepared by mixing equal volumes of the respective solutions. Resazurin work solution (herein termed “Alamar Blue” solution) was prepared by diluting said mixture 20× (vol/vol) in PPB and filter sterilising; the Alamar Blue solution could be kept at 4° C. for a maximum of 2 weeks.
For experiments in 384 wells plates the cells were seeded at a density of 5×10^3 cells/ml in Falcon 384-well culture plates (Life Technologies, Merelbeke, Belgium), black with clear bottom, in 45 μl culture medium. Cells were allowed to adhere to plastic for 24 hr. The tested compound was pre-diluted (1/50 in culture medium) and 5 μl pre-diluted compound was added to the wells. Following 4-day incubation, 10 μl of the Alamar Blue solution was added to each well and the cells were further incubated for 5 hrs (A2780) at 37° C. The fluorescence intensity was measured for each well with a Fluorescence plate reader (Fluorskan, Labsystems, 540 nm excitation and 590 nm emission)
The antiproliferative activity was calculated as percentage of remaining viable cells in treated versus control (untreated cells) conditions. Within an experiment, the result for each experimental condition is the mean of 3 replicate wells. When appropriate, the experiments were repeated to establish full concentration-response curves. When appropriate, IC50-values (concentration of the drug, needed to reduce cell growth to 50% of the control) were computed using probit analysis for graded data (Finney, D. J., Probit Analyses, 2nd Ed. Chapter 10, Graded Responses, Cambridge University Press, Cambridge 1962). Herein the effects of test compounds are expressed as pIC50 (the negative log value of the IC50-value) (see Table 4).
In general terms: The colour change of resazurin is a common sign of viable cells or microbes.

The test system of the next assay is p53 in A2780 cells. Description: p53 ELISA (preservation of p53 in A2780 cells). It is filed as cell-based. Conditions: Homo sapiens, treated with compound for 16 hours, read-out: p53-elisa LAD (lowest dose giving at least 140% of the value for p53 present in the control). The protocol:
The capacity of the compounds to preserve p53 in A2780 cells was measured with the p53 enzyme linked immunosorbent assay (ELISA). The p53 assay is a “sandwich” enzyme immunoassay employing two polyclonal antibodies. A polyclonal antibody, specific for the p53 protein, has been immobilized onto the surface of the plastic wells. Any p53 present in the sample to be assayed will bind to the capture antibody. The biotinylated detector polyclonal antibody also recognizes p53 protein, and will bind to any p53, which has been retained by the capture antibody. The detector antibody, in turn, is bound by horseradish peroxidase-conjugated streptavidin. The horseradish peroxidase catalyses the conversion of the chromogenic substrate o-phenylene diamine, the intensity of which is proportional to the amount of p53 protein bound to the plate. The coloured reaction product is quantified using a spectrophotometer. Quantitation is achieved by the construction of a standard curve using known concentrations of purified recombinant HIS tagged p53 protein (see example C.1).
A2780 cells (ATCC) were cultivated in RPMI 1640 supplemented with 10% fetal calf serum (FCS), 2 mM L-glutamine and gentamycin at 37° C. in a humidified incubator with 5% CO2.
A2780 cells were seeded at 20.000 cells per well in a 96 well plate, cultured for 24 hours and treated with compound for 16 hours at 37° C. in a humidified incubator. After incubation, the cells were washed once with phosphate-buffered saline and 30 μl, per well, low salt RIPA buffer (20 mM tris, pH7.0, 0.5 mM EDTA, 1% Nonidet P40, 0.5% DOC, 0.05% SDS, 1 mM PMSF, 1 μg/ml aprotinin and 0.5 μ/ml leupeptin) was added. Plates were placed on ice for 30 minutes to complete the lysis. p53 protein was detected in de lysates by using the sandwich ELISA, described below.
High binding polystyrene EIA/RIA 96 well plates (Costar 9018) were coated with the capture antibody pAb1801 (Abcam ab28-100) at a concentration of 1 μg/ml in coating buffer (0.1 M NaHCO3 pH8.2), 50 μl per well. The antibody was allowed to adhere overnight at 4° C. Coated plates were washed once with phosphate-buffered saline (PBS)/0.05% Tween 20 and 300 μl of blocking buffer (PBS, 1% bovine serum albumins (BSA)) was added, for an incubation period of 2 hours at room temperature. Dilutions of purified recombinant HIS tagged p53 protein, ranging from 3-200 ng/ml, were made in blocking buffer and used as standards.
Plates were washed twice with PBS/0.05% Tween 20 and blocking buffer or standards were added at 80 μl/well. To the standards, 20 μl of lysis buffer was added. The samples were added to the other wells at 20 μl lysate/well. After an overnight incubation at 4° C., plates were washed twice with PBS/0.05% Tween 20. Aliquots of 100 μl secondary polyclonal antibody p53(FL-393) (Tebubio, sc-6243) at a concentration of 1 μg/ml in blocking buffer were added to each well and allowed to adhere for 2 hours at room temperature. Plates were washed three times with PBS/0.05% Tween 20. Detection antibody anti-rabbit HRP (sc-2004, Tebubio) at 0.04 μg/ml in PBS/1% BSA was added and incubated for 1 hour at room temperature. Plates were washed three times with PBS/0.05% Tween 20 and 100 μl of substrate buffer was added (substrate buffer was prepared shortly before use by adding 1 tablet of 10 mg o-phenylene diamine (OPD) from Sigma and 125 μl 3% H2O2 to 25 ml OPD buffer: 35 mM citric acid, 66 mM Na2HPO4, pH5.6). After 5 to 10 minutes, colour reaction was stopped by adding 50 μl stop buffer (1 M H2SO4) per well. The absorbance at dual wavelengths of 490/655 nm was measured using a Biorad micro plate reader and the results were then analyzed.
For each experiment, controls (containing no drug) and a blank incubation (containing no cells or drugs) were run in parallel. The blank value was subtracted from all control and sample values. For each sample, the value of p53 (in absorbance units) was expressed as the percentage of the value for p53 present in the control. […]

As usually defined, the IC50 is the point on the concentration scale where inhibition reaches its midpoint. As for `OC1CCc2c(Nc3ccc4c(c3)OC3(CCCC3)CN4CCc3c[nH]c4ccccc34)ccnc21` (centres unmarked) [Compound 28], the IC50 in assay [1] is 4.9 µM. The minimal effective concentration with p53 in A2780 cells was determined as 3 µM.

Consider `OC1CCc2c(Nc3ccc4c(c3)CCCN4CCc3c[nH]c4ccccc34)ccnc21` (centres unmarked) [Compound 11], for which the IC50 in assay [1] was 2.34 µM. The minimal effective concentration in the assay on p53 in A2780 cells is 0.1 µM.

For `CCC1(C)CN(CCc2c[nH]c3ccccc23)c2ccc(Nc3ccncc3)cc2O1` (centres unmarked) [Compound 54], in assay [1], the half-inhibitory concentration (IC50) is 3.63 µM. Besides, the minimal effective concentration in the assay on p53 in A2780 cells is over 10 µM.

For the compound `Cc1cccc2c(CCN3CC(C)(C)Oc4cc(Nc5ccnc6c5CCC6O)ccc43)c[nH]c12` (centres unmarked) [Compound 44], the IC50 in assay [1] is 5.01 µM. Further, the minimal effective concentration with p53 in A2780 cells was over 10 µM.

For the compound `CC1Oc2cc(Nc3ccnc(CO)c3)ccc2N(CCc2c[nH]c3ccccc23)C1=O` (centres unmarked) [Compound 65], in assay [1], the IC50 was over 10 µM. For the same compound, the minimal effective concentration with p53 in A2780 cells was over 10 µM.

Take `OC1CCc2c(Nc3ccc4c(c3)OC3(CCOCC3)CN4CCc3c[nH]c4ccccc34)ccnc21` (centres unmarked) [Compound 30]: the IC50 in assay [1] was 6.31 µM. The minimal effective concentration with p53 in A2780 cells was over 10 µM.

Take `CN1CCN(CCc2c[nH]c3ccccc23)c2ccc(Nc3ccnc4c3CCC4O)cc21` (centres unmarked) [Compound 75]: the concentration for half-maximal inhibition (IC50) in assay [1] was about 5.25 µM. Moreover, in the assay on p53 in A2780 cells, the minimal effective concentration was over 10 µM.

With `OC1CCc2c(Nc3ccc4c(c3)OC3(CCSCC3)CN4CCc3c[nH]c4ccccc34)ccnc21` (centres unmarked) [Compound 26], the IC50 in assay [1] is about 6.03 µM. In addition, the minimal effective concentration in the assay on p53 in A2780 cells amounted to 0.03 µM.

For the compound `CC1Oc2cc(Nc3ccncc3)ccc2N(CCc2c[nH]c3ccccc23)C1=O` (centres unmarked) [Compound 61], in assay [1], the IC50 was over 10 µM. Besides, in the assay with p53 in A2780 cells, the minimal effective concentration was over 10 µM.

Regarding `CN1CCC2(CC1)CN(CCc1c[nH]c3ccccc13)c1ccc(Nc3ccncc3)cc1O2` [Compound 51], the IC50 in assay [1] is 3.02 µM. Moreover, the minimal effective concentration with p53 in A2780 cells was over 10 µM.

For the compound `Cc1cccc2c(CCN3CC(C)(C)Oc4cc(Nc5ccncc5)ccc43)c[nH]c12` [Compound 52], the IC50 in assay [1] is 3.09 µM. For the same compound, the minimal effective concentration in the assay on p53 in A2780 cells is over 10 µM.

Consider `CC(C)N1CCC2(CC1)CN(CCc1c[nH]c3ccccc13)c1ccc(Nc3ccnc4c3CCC4O)cc1O2` (centres unmarked) [Compound 33], for which the IC50 in assay [1] was 2.19 µM. The minimal effective concentration in the assay on p53 in A2780 cells was over 10 µM.

Take `c1ccc2c(CCN3CCCc4cc(Nc5ccncc5)ccc43)c[nH]c2c1` [Compound 23]: the IC50 in assay [1] is 3.02 µM. Also, the minimal effective concentration with p53 in A2780 cells is over 10 µM.

Regarding `OC1CCc2c(Nc3ccc4c(c3)OCCN4CCc3csc4ccccc34)ccnc21` (centres unmarked) [Compound 12], the IC50 in assay [1] is 3.72 µM. Moreover, the minimal effective concentration with p53 in A2780 cells was determined as 0.3 µM.

On to `OC1CCc2c(Nc3ccc4c(c3)OC(c3ccoc3)CN4CCc3c[nH]c4ccccc34)ccnc21` (centres unmarked) [Compound 5], for which the half-maximal inhibitory concentration (IC50) in assay [1] was 2.57 µM. Also, in the assay with p53 in A2780 cells, the minimal effective concentration was found to be 0.3 µM.

With `Cc1cccc2c(CCN3CC4(CCCCC4)Oc4cc(Nc5ccnc6c5CCC6O)ccc43)c[nH]c12` (centres unmarked) [Compound 25], in assay [1], the IC50 is about 5.62 µM. For the same compound, the minimal effective concentration in the assay on p53 in A2780 cells is 0.03 µM.

For `c1ccc2c(CCN3CC4(CCOCC4)Oc4cc(Nc5ccncc5)ccc43)c[nH]c2c1` [Compound 7], the half-maximal inhibitory concentration (IC50) in assay [1] is 8.51 µM. Moreover, the minimal effective concentration in the assay with p53 in A2780 cells is over 10 µM.

`OCc1cc(Nc2ccc3c(c2)OC2(CCOCC2)CN3CCc2c[nH]c3ccccc23)ccn1` [Compound 45]: in assay [1], the IC50 was 6.31 µM. For the same compound, the minimal effective concentration in the assay on p53 in A2780 cells was over 10 µM.

With `c1ccc2c(CCN3CC4(CCNCC4)Oc4cc(Nc5ccncc5)ccc43)c[nH]c2c1` [Compound 15], the IC50 in assay [1] is 8.32 µM. In addition, the minimal effective concentration with p53 in A2780 cells is over 10 µM.

As for `CC1(C)Oc2cc(Nc3ccncc3)ccc2N(CCc2c[nH]c3ccccc23)C1=O` [Compound 63], the IC50 in assay [1] was over 10 µM. For the same compound, the minimal effective concentration with p53 in A2780 cells was over 10 µM.

For `c1ccc2c(CCN3CC4(CCSCC4)Oc4cc(Nc5ccncc5)ccc43)c[nH]c2c1` [Compound 56], in assay [1], the half-maximal inhibitory concentration (IC50) is about 4.79 µM. In addition, the minimal effective concentration in the assay on p53 in A2780 cells is over 10 µM.

Consider `CN1CCN(CCc2c[nH]c3ccccc23)c2ccc(Nc3ccnc(CO)c3)cc21` [Compound 20], for which the IC50 in assay [1] was 4.79 µM. Besides, in the assay with p53 in A2780 cells, the minimal effective concentration stood at 3 µM.

As for `OCc1cc(Nc2ccc3c(c2)OC2(CCCC2)CN3CCc2c[nH]c3ccccc23)ccn1` [Compound 40], the IC50 in assay [1] was about 4.79 µM. In addition, in the assay on p53 in A2780 cells, the minimal effective concentration is over 10 µM.

On to `c1ccc2c(CCN3CCOc4cc(Nc5ccncc5)ccc43)coc2c1` [Compound 49], for which the IC50 in assay [1] was 4.79 µM. Also, the minimal effective concentration with p53 in A2780 cells was over 10 µM.

Take `Cc1cccc2c(CCN3CCOc4cc(Nc5ccnc6c5CCC6O)ccc43)c[nH]c12` (centres unmarked) [Compound 14]: the IC50 in assay [1] is 2.88 µM. Moreover, the minimal effective concentration with p53 in A2780 cells is 3 µM.

Turning to `OCc1cc(Nc2ccc3c(c2)OC(c2ccoc2)CN3CCc2c[nH]c3ccccc23)ccn1` (centres unmarked) [Compound 35], the IC50 in assay [1] was about 5.13 µM. Besides, in the assay on p53 in A2780 cells, the minimal effective concentration was found to be 3 µM.

Take `CC1(C)CN(CCc2c[nH]c3ccccc23)c2ccc(Nc3ccnc4c3CCC4O)cc2O1` (centres unmarked) [Compound 77]: the IC50 in assay [1] is 2.19 µM. Also, in the assay with p53 in A2780 cells, the minimal effective concentration was 3 µM.

In the case of `CCC1(C)CN(CCc2c[nH]c3ccccc23)c2ccc(Nc3ccnc4c3CCC4O)cc2O1` (centres unmarked) [Compound 27], the IC50 in assay [1] is 5.13 µM. Further, the minimal effective concentration in the assay on p53 in A2780 cells turned out to be 1 µM.
